Consider six compounds from PMC8695447, “Novel Small Molecules Capable of Blocking mtRAS-Signaling Pathway” (Frontiers in Oncology, 2021).

In one experiment the test system is mtKRAS NSCLC cell. More on the design: method as in earlier work. The note with it: ACK1 inhibitor; ref 37 (Tan et al.); cited from earlier work.
Another experiment concerns AsPC-1 (KRAS-G12D). In words: Anti-proliferation assay on AsPC-1. The experiment is classed as cell-based. The note with it: 72 h treatment, average with SD (n = 3, duplicate). As to the method:
(§1) Ba/F3-parental, OCI-AML3, U397 cells were purchased from DSMZ. MDA-MB-231, HCT-116, AsPC-1, H358, HT-29, SW480, and DU-145 cells were obtained from KCLB. MDA-MB-468 cells were obtained from ATCC. All cells were maintained in RPMI with 10% FBS and antibiotics. Cells were grown in a humidified 5% CO2 incubator at 37°C. Ba/F3-parental cells were grown in the presence of 10 ng/ml IL-3. NRAS-G12D or NRAS-G12V transformed Ba/F3 cell lines (Ba/F3-NRAS-G12D, and Ba/F3-NRAS-G12V, respectively) were cultured without IL-3, which were established by the procedure described as previously ([30]).
(§2) Approximately 3.0 × 10^3 cells/well were seeded in a 96-well cell culture plate. After stabilization, 1/3 serially diluted compound in DMSO was treated to the cell. […] All GI50 values were obtained in duplicate with three independent assays and averages with standard deviation are presented.

A further experiment has as its system U937 (KRAS, NRAS-wt). In words: Anti-proliferation assay on U937. It is filed as cell-based. The following applies: 72 h treatment, average with SD (n = 3, duplicate). The procedure:
as §1, §2

Another experiment relates to Ba/F3-NRAS-G12V cells. Description: Anti-proliferation assay (CellTiter Glo) on Ba/F3-NRAS-G12V. It is filed as cell-based. The note with it: 72 h treatment, average with SD (n = 3, duplicate). As to the method:
as §1, §2
(In general: ATP-based viability assays read luminescence as a measure of living cells.)

The test system of another experiment is Ba/F3-NRAS-G12D cells. Description: Anti-proliferation assay (CellTiter Glo) on Ba/F3-NRAS-G12D. The experiment is classed as cell-based. The following applies: 72 h treatment, average with SD (n = 3, duplicate). The procedure:
as §1, §2

A further experiment has as its system DU-145 (KRAS-G12V). Description: Anti-proliferation assay on DU-145. The experiment is classed as cell-based. The note with it: 72 h treatment, average with SD (n = 3, duplicate). As to the method:
as §1, §2

For a further experiment, the system named is MDA-MB-231 (KRAS-G13D). In words: Anti-proliferation assay on MDA-MB-231. The experiment is classed as cell-based. The following applies: 72 h treatment, average with SD (n = 3, duplicate). The procedure:
as §1, §2

A further experiment deals with H358 (KRAS-G12C). Description: Anti-proliferation assay on H358. It is filed as cell-based. The following applies: 72 h treatment, average with SD (n = 3, duplicate). The procedure:
as §1, §2

A further experiment relates to SW480 (KRAS-G12V). Description: Anti-proliferation assay on SW480. It is filed as cell-based. The following applies: 72 h treatment, average with SD (n = 3, duplicate). As to the method:
as §1, §2

Another experiment concerns Ba/F3-parental cells. In words: Anti-proliferation assay (CellTiter Glo) on Ba/F3-parental. The note with it: 72 h treatment, with 10 ng/ml IL-3, average with SD (n = 3, duplicate). It is filed as cell-based. The procedure: as §1, §2
In a further experiment the test system is HT-29 (KRAS-Q61L). In words: Anti-proliferation assay on HT-29. It is filed as cell-based. The note with it: 72 h treatment, average with SD (n = 3, duplicate). The procedure: as §1, §2
Another experiment has as its system OCI-AML3 (NRAS-Q61L). In words: Anti-proliferation assay on OCI-AML3. The experiment is classed as cell-based, human. The following applies: 72 h treatment, average with SD (n = 3, duplicate). The procedure: as §1, §2
Experiment [1] concerns MDA-MB-468 (KRAS, NRAS-wt). Description: Anti-proliferation assay on MDA-MB-468. The experiment is classed as cell-based. The note with it: 72 h treatment, average with SD (n = 3, duplicate). The procedure: as §1, §2
For another experiment, the system named is HCT-116 (KRAS-G13D). Description: Anti-proliferation assay on HCT-116. The experiment is classed as cell-based. The note with it: 72 h treatment, average with SD (n = 3, duplicate). The procedure:
as §1, §2

Take `COc1cc(Nc2c(C#N)cnc3cc(OCCCN4CCN(C)CC4)c(OC)cc23)c(Cl)cc1Cl` [bosutinib]: in the experiment with mtKRAS NSCLC cell, the “mtKRAS NSCLC cell migration and invasion” value is recorded as “suppressed”.

As a reminder, the GI50 is the concentration that inhibits growth by half. Take `Cc1ccc(Nc2ncc3c(n2)N(C)C(=O)N(c2cc(NC(=O)c4cccc(C(F)(F)F)c4)ccc2C)C3)cn1` [GNF-7, reference compound]: the GI50 in the experiment on AsPC-1 (KRAS-G12D) turned out to be 448 ± 27 nM; in the experiment with U937 (KRAS, NRAS-wt) it was 4780 ± 926 nM; with Ba/F3-NRAS-G12V cells, 396 ± 36 nM; in the experiment on Ba/F3-NRAS-G12D cells, 250 ± 26 nM; with DU-145 (KRAS-G12V), 288 ± 57 nM; in the experiment with MDA-MB-231 (KRAS-G13D), 296 ± 39 nM. In addition, the GI50 in the experiment on H358 (KRAS-G12C) is 922 ± 93 nM; in the experiment with SW480 (KRAS-G12V) it was 760 ± 63 nM; with Ba/F3-parental cells, 923 ± 59 nM; in the experiment with HT-29 (KRAS-Q61L) it was 938 ± 34 nM; with OCI-AML3 (NRAS-Q61L), 229 ± 10 nM; in experiment [1], more than 50000 nM. Further, halving of growth with HCT-116 (KRAS-G13D) (GI50) required 169 ± 61 nM.

For `CCN1CCC(n2cc(Nc3ncc4c(n3)N(C)C(=O)N(c3cc(NC(=O)c5cccc(C(F)(F)F)c5)ccc3C)C4)cn2)CC1` [Compound 13, N-(3-(7-((1-(1-Ethylpiperidin-4-yl)-1H-pyrazol-4-yl)amino)-1-methyl-2-oxo-1,4-dihydropyrimido[4,5-d]pyrimidin-3(2H)-yl)-4-methylphenyl)-3-(trifluoromethyl)benzamide], the concentration for 50% growth inhibition (GI50) with AsPC-1 (KRAS-G12D) (Homo sapiens, ASPC1) turned out to be 186 ± 22 nM; in the experiment with U937 (KRAS, NRAS-wt) (Homo sapiens, U-937), 690 ± 35 nM; in the experiment with Ba/F3-NRAS-G12V cells (Mus musculus, BaF3), 130 ± 28 nM; in the experiment on Ba/F3-NRAS-G12D cells (Mus musculus, BaF3), 114 ± 18 nM; in the experiment with DU-145 (KRAS-G12V) (Homo sapiens, DU-145), 76 ± 26 nM; in the experiment with MDA-MB-231 (KRAS-G13D) (Homo sapiens, MDA-MB-231), 55 ± 20 nM. The GI50 was found to be 147 ± 31 nM with H358 (KRAS-G12C) (Homo sapiens, NCI-H358); 269 ± 61 nM in the experiment on SW480 (KRAS-G12V) (Homo sapiens, SW480); 889 ± 61 nM in the experiment on Ba/F3-parental cells (Mus musculus, BaF3); 164 ± 2 nM in the experiment with HT-29 (KRAS-Q61L) (Homo sapiens, HT-29); 36 ± 7 nM in the experiment on OCI-AML3 (NRAS-Q61L) (Homo sapiens, OCI-AML-3); 16200 ± 6020 nM in experiment [1] (Homo sapiens, MDA-MB-468). Further, in the experiment with HCT-116 (KRAS-G13D) (Homo sapiens, HCT-116), the GI50 came out at 77 ± 27 nM.

As for `Cc1ccc(NC(=O)c2cccc(C(F)(F)F)c2)cc1N1Cc2cnc(Nc3cnn(C)c3)nc2N(C)C1=O` [Compound 10, N-(4-Methyl-3-(1-methyl-7-((1-methyl-1H-pyrazol-4-yl)amino)-2-oxo-1,4-dihydropyrimido[4,5-d]pyrimidin-3(2H)-yl)phenyl)-3-(trifluoromethyl)benzamide], the 50% growth inhibitory concentration (GI50) in the experiment with AsPC-1 (KRAS-G12D) (Homo sapiens, ASPC1) was found to be 105 ± 34 nM; in the experiment with U937 (KRAS, NRAS-wt) (Homo sapiens, U-937), 2700 ± 668 nM; with Ba/F3-NRAS-G12V cells (Mus musculus, BaF3), 280 ± 79 nM; in the experiment with Ba/F3-NRAS-G12D cells (Mus musculus, BaF3) it was 193 ± 7 nM; in the experiment on DU-145 (KRAS-G12V) (Homo sapiens, DU-145) it was 51 ± 46 nM; in the experiment with MDA-MB-231 (KRAS-G13D) (Homo sapiens, MDA-MB-231) it was 50 ± 12 nM. In addition, the GI50 in the experiment with H358 (KRAS-G12C) (Homo sapiens, NCI-H358) is 130 ± 9 nM; in the experiment on SW480 (KRAS-G12V) (Homo sapiens, SW480), 275 ± 29 nM; in the experiment on Ba/F3-parental cells (Mus musculus, BaF3) it was 630 ± 104 nM; in the experiment on HT-29 (KRAS-Q61L) (Homo sapiens, HT-29), 366 ± 152 nM; with OCI-AML3 (NRAS-Q61L) (Homo sapiens, OCI-AML-3), 59 ± 7 nM; in experiment [1] (Homo sapiens, MDA-MB-468), more than 50000 nM. Moreover, it took 68 ± 28 nM to inhibit growth with HCT-116 (KRAS-G13D) (Homo sapiens, HCT-116) by half (GI50).

For the compound `Cc1ccc(NC(=O)c2cccc(C(F)(F)F)c2)cc1N1Cc2cnc(Nc3ccc(N4CCC(O)CC4)cc3)nc2N(C)C1=O` [Compound 2, N-(3-(7-((4-(4-Hydroxypiperidin-1-yl)phenyl)amino)-1-methyl-2-oxo-1,4-dihydropyrimido[4,5-d]pyrimidin-3(2H)-yl)-4-methylphenyl)-3-(trifluoromethyl)benzamide], the GI50 in the experiment on AsPC-1 (KRAS-G12D) (Homo sapiens, ASPC1) was 257 ± 129 nM; with U937 (KRAS, NRAS-wt) (Homo sapiens, U-937), 1690 ± 624 nM; in the experiment with Ba/F3-NRAS-G12V cells (Mus musculus, BaF3), 181 ± 42 nM; in the experiment with Ba/F3-NRAS-G12D cells (Mus musculus, BaF3), 116 ± 37 nM; in the experiment on DU-145 (KRAS-G12V) (Homo sapiens, DU-145), 40 ± 20 nM; in the experiment on MDA-MB-231 (KRAS-G13D) (Homo sapiens, MDA-MB-231), 90 nM. Moreover, the GI50 with H358 (KRAS-G12C) (Homo sapiens, NCI-H358) is 201 ± 23 nM; with SW480 (KRAS-G12V) (Homo sapiens, SW480), 293 ± 50 nM; with Ba/F3-parental cells (Mus musculus, BaF3) it was 827 ± 142 nM; in the experiment with HT-29 (KRAS-Q61L) (Homo sapiens, HT-29) it was 143 ± 10 nM; in the experiment on OCI-AML3 (NRAS-Q61L) (Homo sapiens, OCI-AML-3), 101 ± 22 nM; in [1] (Homo sapiens, MDA-MB-468) it was 20200 ± 8770 nM. Moreover, in the experiment with HCT-116 (KRAS-G13D) (Homo sapiens, HCT-116), the 50% growth inhibitory concentration (GI50) amounted to 15 ± 9 nM.

Take `Cc1ccc(NC(=O)c2cccc(C(F)(F)F)c2)cc1N1Cc2cnc(NCCCN3CCOCC3)nc2N(C)C1=O` [Compound 5, N-(4-Methyl-3-(1-methyl-7-((3-morpholinopropyl)amino)-2-oxo-1,4-dihydropyrimido[4,5-d]pyrimidin-3(2H)-yl)phenyl)-3-(trifluoromethyl)benzamide]: the 50% growth inhibitory concentration (GI50) came to 4160 ± 2170 nM in the experiment on AsPC-1 (KRAS-G12D) (Homo sapiens, ASPC1); 4720 ± 488 nM in the experiment with U937 (KRAS, NRAS-wt) (Homo sapiens, U-937); 351 ± 34 nM in the experiment with Ba/F3-NRAS-G12V cells (Mus musculus, BaF3); 457 ± 141 nM with Ba/F3-NRAS-G12D cells (Mus musculus, BaF3); 1880 ± 125 nM with DU-145 (KRAS-G12V) (Homo sapiens, DU-145); 1110 ± 127 nM in the experiment on MDA-MB-231 (KRAS-G13D) (Homo sapiens, MDA-MB-231). Besides, the GI50 in the experiment on H358 (KRAS-G12C) (Homo sapiens, NCI-H358) was 5140 ± 368 nM; with SW480 (KRAS-G12V) (Homo sapiens, SW480) it was 6440 ± 264 nM; in the experiment on Ba/F3-parental cells (Mus musculus, BaF3) it was 5730 ± 148 nM; in the experiment on HT-29 (KRAS-Q61L) (Homo sapiens, HT-29) it was 3120 ± 460 nM; in the experiment on OCI-AML3 (NRAS-Q61L) (Homo sapiens, OCI-AML-3) it was 538 ± 162 nM; in [1] (Homo sapiens, MDA-MB-468) it was more than 50000 nM. Further, the concentration for 50% growth inhibition (GI50) in the experiment with HCT-116 (KRAS-G13D) (Homo sapiens, HCT-116) stood at 2540 ± 1810 nM.
